*1 amine or outer side, *2 acyl side, *3 side chain or, on linkers, in order; H or OH if unused. Where a SMILES comes first, the peptide text is derived from it. Bridges are numbered along the chain shown (N, C = ends). X1 = O=C(CCC[*:2])[*:1]
How the values were obtained:
[1] = tested on: rats; test: Anxiolytic effect, elevated plus-maze assay; assay type: in vivo
Protocol: The anxiolytic effect of carbetocin and oxytocin was tested using the elevated plus-maze assay in rats as described in Holmes, A., et al., Behav. Neurosci. 115(5):1129-44, 2001. See also Sahuque, L., et al., Psychopharmacology 186(1):122-132, Berl, 2006; Carvalho, M. C., et al., Braz. Med. Biol. Res. 38(12):1857-66, 2005; and Langen, B., et al., J. Pharmacol. Exp. Ther. 314:717-724, 2005. Alprazolam, a known anxiety drug, was also included in the study. Sixty male, 6-10 week old experimentally naïve rats obtained from the Charles River laboratories were divided into six groups of ten animals each. All animals were maintained in compliance with the standards of the National Research Council and were fed certified rodent diet (Teklad, Madison, Wis.) and water ad libitum. The animals were housed in a dedicated study room with 12 hour light/12 hour dark at RT 18 to 26° C. and 30-70% humidity. Study animals were acclimated to their housing for at least 5 days prior to the first day of dosing. Routes of administration included intracerebroventricular (ICV), intraperitoneal (IP), or intramuscular (IM).
For the anxiolytic study, all groups were dosed by injection with formulations that contained the appropriate API in 0.9% saline solution. Alprazolam was an oral solution dosage form and diluted to the desired concentration in 0.9% saline for the anxiolytic study, Alprazolam Intensol™ Oral Solution (Concentrate) 1 mg/ml (each ml contains 1 mg Alprazolam).
The dosing preparations were administered once to each rat as a bolus. In the ICV administration group, test doses were administered into the lateral ventricle through a port in the already implanted ICV cannula. Testing was conducted 20 minutes after ICV and 30 minutes after IM and IP. The animals were tested for 15 minutes on the maze immediately following transport from the home cage.
The elevated plus maze consisted of a platform with 4 arms, two open and two closed (50×10×50 cm enclosed with an open roof). Rats were tested two at a time and placed by hand in the center of the platform of two separate mazes, at the crossroad of the 4 arms, facing one of the open arms. After fifteen minutes, the first rat was left for a few seconds until the second rat's fifteen minutes was completed. The rats were monitored remotely.
Prior to each rat's test, the plus-maze surfaces and closed sides were cleaned. Rats were handled by gloved hands. The time from removal from the home cage to start of testing was less than 15 seconds. Rats were gently removed from the home cage and placed onto the center square between the open and closed arms, and facing the opposite open arm. The rats were facing away from the experimenter. The experimenter moved away from the maze to an area not visible to the rat(s) and viewed the rat(s) via television monitor. At the end of the test the recorder was stopped and the rat(s) removed from the maze.
The rats were evaluated for time spent in open arm exploration (Open Time), time spent in closed arm exploration (Closed Time) and scored for anxiety according to the percent of time spent in open arm exploration ([time spent in open arms/time spent in open arms+time spent in closed arms×100]) (Open Time %); the absolute time spent in open arm exploration; and the percent of open arm entries ([number of open arm entries/number of open arm entries+number of closed arm entries]×100). The number of total arm entries was used as a measure of overall locomotor activity. The scores were compared to the vehicle controls and to the baseline using one-way ANOVA followed by the appropriate post-hoc test (Bonferroni/Dunnets) and a p<0.05 was considered to be statistically significant.

[2] = human, in vivo, inhaled or intranasal, 150 ug
Protocol: (§2) In this second clinical trial, three concentrations of carbetocin were manufactured based on the formulation disclosed in Table 38 in order to provide a carbetocin dose of 150 μg, 250 μg, and 400 μg. Blood samples for PK analysis of carbetocin and oxytocin levels were collected in EDTA coated blood collection tubes from patients. Aprotinin was immediately added and the samples were centrifuged to obtain plasma samples. Intranasal (IN) formulation of carbetocin were dosed using a 100 μl actuator in 12 healthy, human subjects at three strengths (1.5, 2.5, and 4.0 mg/ml) and compared to intramuscular (IM) dose of Duratocin® (Carbetocin Injection). An additional comparison to the commercially available version of intranasal oxytocin (Syntocinon Spray®) was also conducted. Blood samples were taken periodically between t=0 (predose) and 6 hrs.

[3] = in vivo; conditions: rabbit, inhaled or intranasal, 60 ug
Protocol: In this Example, eight groups of rabbits were dosed with the formulations presented in Table 34; group 1 received intramuscular (IM) carbetocin injection at 30 μg dose, while the remaining 7 groups received the 60 μg doses of intranasal (IN) carbetocin nasal spray formulations.
Briefly, in this rabbit PK study 3, Group 1 represents a control intramuscular injection; Group 2 represents a formulation used for our first human clinical study. […] In context with formulation #5, the design of this experiment is intended to further confirm the effect of CMC-LV on BA.
For this experiment, 25 ml of each intranasal (IN) formulation was prepared. All IN formulations were stored in 3×1 ml aliquots in 1cc amber glass bottles. Also, 400 ml of the intramuscular (IM) formulation was prepared and stored in 3×3 mL aliquots in 3 cc clear glass bottles. All formulations were stored at 2-8° C.

[4] = clinical; conditions: human, in vivo; for AUC(0-t) / Tmax: inhaled or intranasal
Protocol: In this human clinical study (cross-over, dose escalating), the intranasal (IN) formulation of carbetocin was administered (a single dose) to 12 healthy human subjects (18-65 years old) at three strengths (150, 300, and 500 μg per dose) and compared to the 50 μg dose of Duratocin® administered by intramuscular injection (IM). Blood samples were taken periodically between t=0 (predose) and 6 hrs after dosing.

[5] = clinical; conditions: human, in vivo; for Cmax / Tmax / AUC(0-t): inhaled or intranasal
Protocol: as §2

[6] = in vivo; cited from earlier work
[7] = tested on: tracheal/bronchial epithelial cell membrane inserts (EpiAirway); test: Transepithelial electrical resistance (TER); assay type: cell-based; conditions: Rabbit Pharmacokinetic Study 3 formulations
Protocol: Tracheal/bronchial epithelial cell membrane inserts (EpiAirway, MatTek Corp., Ashland, Mass.) were received the day before the experiment. Each tissue insert was placed in a well of a 6 well plate which contained 0.9 ml of serum free media and cultured at 37° C. for 24 hours to allow the tissues to equilibrate. The day of the experiment, transepithelial electrical resistance measurements were taken for each insert using a Tissue Resistance Measurement Chamber connected to an Epithelial Voltohmeter (World Precision Instruments, Inc., Sarasota, Fla.).
(§1) 200 μl of fresh media was gently added to each tissue insert in the 24 well plate and the plate was placed no a shaker table at room temperature for 5 minutes. 150 μl of apical solution was removed from each insert and reserved for a […] dehydrogenase assay. The inserts were then washed with 300 μl of media; 300 μl of new media was added to each insert, the inserts were incubated for 20 minutes at room temperature and the transepithelial electrical resistance was measured.

[8] = tested on: tracheal/bronchial epithelial cell membrane inserts (EpiAirway); test: Cell viability, MTT assay; assay type: cell-based; conditions: Rabbit Pharmacokinetic Study 3 formulations
Protocol: Cell viability was assessed using an MTT assay kit (MatTek Corp., Ashland, Mass.). MTT concentrate was thawed and diluted with media at a ratio of 2 ml MTT:8 ml media. 300 μl MTT-media mix was added to each well of a 24 well plate. Tissue culture inserts were drained and transferred to the MTT containing well and incubated at 37° C. in the dark for three hours. After incubation, each insert was removed from the plate, and then immersed in the wells of a fresh 24-well plate containing 2 ml extractant solution. The plate was then covered and incubated overnight at room temperature in the dark. The liquid in each insert was then decanted back into the well from which it was taken and the insert was discarded. 50 μl of the exractant solution from each well was then pipetted in triplicate into a 96 well plate and diluted with the addition of 150 μl of fresh extractant solution. The optical density of the samples was then measured at 550 nm on a Spectramax plate reader (Molecular Devices, Sunnyvale, Calif.) using SpectraPro software.

[9] = tested on: tracheal/bronchial epithelial cell membrane inserts (EpiAirway); test: Cytotoxicity, LDH assay (apical and basolateral); assay type: cell-based; conditions: Rabbit Pharmacokinetic Study 3 formulations
Protocol: as §1
The inserts are then transferred into a new 24 well plate containing no media and the appropriate amount of media was added to the apical surface in order to total 300 μl. The inserts were then shaken for five minutes at 100 RPM at room temperature. 50-100 μl of the apical media were then removed, placed in […] and kept at 2-8° C. until needed.
The samples were then centrifuged at 1000 rpm for 5 minutes. 2 μl of the supernatant was removed and added to a 96 well plate. 48 μl of media was then used to dilute the supernatant to make a 25× dilution and each sample was assayed in triplicate for LDH loss using a CytoTox 96 Cytotoixcity Assay Kit (Promega Corp., Madison, Wis.).
For analysis of the basolateral media, 50 μl of the reserved 150 μl solution was loaded into a 96 well assay plate and assayed in triplicate.

[10] = IP route, tested 30 minutes after dosing
[11] = ICV route, tested 20 minutes after dosing
[12] = IM route, tested 30 minutes after dosing

With `Cc1nnc2n1-c1ccc(Cl)cc1C(c1ccccc1)=NC2` [Alprazolam] the “Closed Time” value [1, 10] was 116.55, the “Open Time” value [1, 10] was 46.07 and the “Open Time (%)” value [1, 10] was 27.9%.
With `CC[C@H](C)[C@@H]1NC(=O)[C@H](Cc2ccc(O)cc2)NC(=O)[C@@H](N)CSSC[C@@H](C(=O)N2CCC[C@H]2C(=O)N[C@@H](CC(C)C)C(=O)NCC(N)=O)NC(=O)[C@H](CC(N)=O)NC(=O)[C@H](CCC(N)=O)NC1=O` [Oxytocin] the “Closed Time” value [1, 11] was 158.42, the “Open Time” value [1, 11] was 17.89 and the “Open Time (%)” value [1, 11] was 11.3%. The “Closed Time” value [1, 12] was 159.47, the “Open Time” value [1, 12] was 14.54 and the “Open Time (%)” value [1, 12] was 8.6%.
With `CC[C@H](C)[C@@H]1NC(=O)[C@H](Cc2ccc(OC)cc2)NC(=O)CCCSC[C@@H](C(=O)N2CCC[C@H]2C(=O)N[C@@H](CC(C)C)C(=O)NCC(N)=O)NC(=O)[C@H](CC(N)=O)NC(=O)[C@H](CCC(N)=O)NC1=O` [carbetocin, 1-butanoic acid-2-(O-methyl-L-tyrosine)-1-carbaoxytocin] (Y(Me)IQNCPLG-NH2; linker N-5 via X1 (inferred)) the AUClast [2] was 13697 (121) min*pg/ml, the F rel [3] was about 9% and the Cmax ([4]; 150 ug) was 0.32 ng/mL. The half-life ([4]; 150 ug) was 33 min, the Cmax ([4]; 300 ug) was 0.43 ng/mL and the half-life ([4]; 300 ug) was 46 min. For the same compound, the Cmax ([4]; 500 ug) was 0.74 ng/mL, the half-life ([4]; 500 ug) was 42 min and the bioavailability ([4]; im, Bioavailability) was 6%. It also gave an AUC(0-t) ([4]; 150 ug) of 0.2 ng·h/mL, an AUC(0-t) ([4]; 300 ug) of 0.25 ng·h/mL and a Tmax ([4]; 300 ug) of 10 min. The AUC(0-t) ([4]; 500 ug) was 0.717 ng·h/mL, the Tmax ([4]; 500 ug) was 18.6 min and the bioavailability ([5]; 150 ug) was 7%. It also gave a bioavailability ([5]; 250 ug) of 6%, a bioavailability ([5]; 400 ug) of 7% and a Cmax ([5]; 150 ug) of 0.222 ng/mL. It also gave a Tmax ([5]; 150 ug) of 15 min, an AUC(0-t) ([5]; 250 ug) of 0.302 ng·h/mL and a Cmax ([5]; 250 ug) of 0.377 ng/mL. It also gave a Tmax ([5]; 250 ug) of 18 min, an AUC(0-t) ([5]; 400 ug) of 0.542 ng·h/mL and a Cmax ([5]; 400 ug) of 0.608 ng/mL. The Tmax ([5]; 400 ug) was 13 min and the “half-life relative to that of oxytocin” value [6] was 4-10 times.
In the case of Triton, the “TER T = 0” value ([7]; T = 0) is reported as 504.4 ohm × cm^2, the “TER T = 60 min” value ([7]; T = 60 min) is reported as 0.2 ohm × cm^2 and the MTT % [8] is reported as 1.4%. The “Apical LDII %” value ([9]; apical) was 100.0% and the “Basolateral LDH %” value ([9]; basolateral) was 100.0%.
